What was measured:
NF-κB = test: Immunohistochemistry of NF-κB p65 expression in paw tissue; type: in vivo; conditions: rat paw 5 h after carrageenan; CLX 30, 4b 36, 4c 40 mg/kg i.p.; significant (P < 0.05) only with CLX
Protocol: (§1) After overnight fasting, five groups of rats were randomly divided (n = 5). Group I (Control): injected only with the DMSO solution (1.2 ml/kg, i.p, 10% v/v of DMSO in sterile 0.9% saline solution). Group II (Carrageenan): injected with carrageenan [0.1 ml of a freshly prepared solution of carrageenan (1% w/v in sterile 0.9% saline solution) into the sub-plantar region of the right hind paw] and the DSMO solution. Group III (CLX): injected the standard drug CLX (30 mg/kg, i.p, 2.5% w/v in the DMSO solution). Group IV (4 b) injected the test drug 4 b (36 mg/kg, i.p, 2% w/v in the vehicle). Group V (4c): injected the test drug 4c (40 mg/kg, i.p, 2% w/v in the DMSO solution). The selected doses of 4 b and 4c were equimolar to 30 mg/kg CLX. One hour after treatments, edema caused by carrageenan injection as described above. A digital vernier caliper (Elora, Germany) was used to measure the thickness of the paw right prior to injection of carrageenan and thereafter at 1, 2, 3, 4, and 5 h.
(§2) After five hours from carrageenan injection, the rats were euthanized using […] with removal of the inflamed paws. Tissues of rat hind-paw’s pad were collected, and 5-mm pieces were homogenised in iced phosphate buffer saline (pH 7.4) on ice. Next, the prepared homogenate was centrifuged (10,000 g, 15 min, 4 °C) and the obtained supernatant was collected for additional analysis. The remaining tissue was fixed in formalin (10% v/v) for 24 h after which it was inserted in paraffin wax.
(§3) Paraffinized tissue sections were dewaxed in xylene and mounted on slides then […] with hematoxylin-eosin (H&E) for histopathological evaluation of inflammation. Inflammation score from 0 to 5 was given as follows: 0,1,2,3,4, and 5 if there is no, mild, mild/moderate, moderate, moderate/severe, and severe inflammation, respectively.[48] […] Immunostained sections were scored as follows: 0,1, 2 and 3 if there is no, weak, moderate, and strong staining effect, respectively.[49]

COX-2 [1] = biological target: T1, COX-2 (Homo sapiens, UniProt P35354); test: In vitro COX-2 inhibition, colorimetric screening assay kit; conditions: for (SI) in vitro COX-2 selectivity index: COX-1 IC50/COX-2 IC50; for HillSlope (best-fit value), COX-2 inhibition / LogIC50 (best-fit value), COX-2 inhibition: supplementary dose-response curve
T1 sequence (P35354 18-604): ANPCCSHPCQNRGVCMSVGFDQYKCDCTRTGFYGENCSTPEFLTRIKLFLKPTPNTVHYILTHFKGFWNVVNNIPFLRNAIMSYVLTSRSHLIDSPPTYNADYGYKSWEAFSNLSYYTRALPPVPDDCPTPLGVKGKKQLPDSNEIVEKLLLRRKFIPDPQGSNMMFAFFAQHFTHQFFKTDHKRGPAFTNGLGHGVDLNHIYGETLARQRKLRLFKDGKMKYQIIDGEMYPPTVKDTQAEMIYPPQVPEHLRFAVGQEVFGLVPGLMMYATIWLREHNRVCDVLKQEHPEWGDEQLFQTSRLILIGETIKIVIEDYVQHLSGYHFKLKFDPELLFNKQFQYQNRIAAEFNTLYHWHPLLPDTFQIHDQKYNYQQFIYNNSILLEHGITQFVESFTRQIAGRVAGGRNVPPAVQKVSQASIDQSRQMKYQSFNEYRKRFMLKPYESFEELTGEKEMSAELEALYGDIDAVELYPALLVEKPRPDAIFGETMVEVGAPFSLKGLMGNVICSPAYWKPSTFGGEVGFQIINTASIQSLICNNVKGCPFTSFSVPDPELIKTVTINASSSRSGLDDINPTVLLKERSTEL
Protocol: (§5) This assay examined the inhibitory potency of the target structures towardboth COX isoforms via colorimetric screening assay kit (Cayman Chemical, MI, United States) based on the directions provided by the manufacturer. ELISA reader Thermo Scientific Multiskan® EX (Thermo scientific, United States) was used. […] Serial dilutions of CLX, as a reference standard, and tested compounds at concentrations of 1000, 300, 100, 30, 10, 3, 1, and 0.30 nM were used in the assay. IC50 of the tested compounds were determined using three different experiments. The selectivity (SI) of each ompound was measured using the COX-2/COX-1 ratio, which compares the IC50 of COX-2 and COX-1.

TNF-α = TNF-α level in paw tissue homogenate (ELISA); type: in vivo, rat; conditions: for TNF-α lowering effect compared with CLX: P < 0.01; for TNF-α paw tissue level compared to the carrageenan group: rat paw 5 h after carrageenan, CLX 30, 4b 36, 4c 40 mg/kg i.p., P < 0.001
Protocol: as §1, §2
(§4) Levels of prostaglandin E2 (PGE2) and tumour necrosis factor-alpha (TNF-α) were measured in paw tissue homogenate using ELISA kits (Cusabio Technology LLC, TX, United States) and as per the guidelines provided by the manufacturer.

[2] = test system: carrageenan-induced paw edoema; test: Carrageenan-induced rat paw edoema, paw swelling; type: in vivo; conditions: rats, i.p. 1 h before carrageenan; CLX 30 mg/kg, 4b 36 mg/kg, 4c 40 mg/kg; 1-5 h
Description: The anti-inflammatory activity of the two selected compounds from the above screening, 4b and 4c was scrutinized in vivo using a paw edema model produced by carrageenan. Male Sprague Dawley rats (180–200 g) were obtained from Vacsera (Giza, Egypt) and maintained at rtunfettered access to food and water in a light-controlled space with a twelve-hour light/dark cycle. The research ethics committee at Mansoura University, Egypt examined and authorized the experiments (code number: 2022–78).
as §1
The paw edoema (E%) and edoema inhibition rate (I%) were calculated as follow: E%=B−A/A×100,
A: paw thickness (mm) just before carrageenan injection and B: paw thickness (mm) at different time intervals after carrageenan injection: I%=Ec−Et/Ec×100,
Ec: mean paw edoema of the carrageenan group and Et is the paw odema of the tested groups.

[3] = test system: carrageenan-injected rat paw tissue; test: Histopathological (H&E) inflammation scoring of carrageenan-inflamed paw tissue; type: in vivo; conditions: rat paw 5 h after carrageenan; CLX 30, 4b 36, 4c 40 mg/kg i.p.; significant (P < 0.05) only with CLX
Protocol: as §1, §2, §3

nitric oxide (NO) = test: NO content in paw tissue homogenate (colorimetric kit); type: in vivo, rat; conditions: for NO paw tissue content compared to CLX: P < 0.01
Protocol: as §1, §2
Contents of malondialdehyde (MDA) as a lipid peroxidation product, and nitric oxide (NO) as anitrosative product, were measured in paw tissue homogenate using colorimetric commercial kits (Biodiagnostic, Giza, Egypt) and as per the guidelines provided by the manufacturer.

COX-1 = biological target: T2, COX-1 (Ovis aries, UniProt P05979); test: In vitro COX-1 inhibition, colorimetric screening assay kit; conditions: for HillSlope (best-fit value), COX-1 inhibition / LogIC50 (best-fit value), COX-1 inhibition: supplementary dose-response curve
T2 sequence (P05979 25-600): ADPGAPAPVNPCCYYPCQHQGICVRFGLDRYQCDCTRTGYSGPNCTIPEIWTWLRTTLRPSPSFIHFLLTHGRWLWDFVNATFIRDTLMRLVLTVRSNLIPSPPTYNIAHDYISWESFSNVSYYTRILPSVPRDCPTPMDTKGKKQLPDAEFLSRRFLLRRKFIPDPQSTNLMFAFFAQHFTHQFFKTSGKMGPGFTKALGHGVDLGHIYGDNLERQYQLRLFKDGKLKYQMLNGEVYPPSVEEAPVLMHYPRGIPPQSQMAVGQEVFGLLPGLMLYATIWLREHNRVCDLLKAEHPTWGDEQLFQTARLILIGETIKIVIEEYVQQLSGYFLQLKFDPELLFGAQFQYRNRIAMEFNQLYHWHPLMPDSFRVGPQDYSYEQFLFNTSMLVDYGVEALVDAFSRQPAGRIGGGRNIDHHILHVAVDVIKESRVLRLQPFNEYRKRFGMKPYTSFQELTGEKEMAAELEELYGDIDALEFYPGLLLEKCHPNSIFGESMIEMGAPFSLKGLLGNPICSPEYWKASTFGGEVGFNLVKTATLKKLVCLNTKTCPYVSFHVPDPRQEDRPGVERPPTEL
Protocol: as §5

PGE2 = PGE2 level in paw tissue homogenate (ELISA); type: in vivo, rat; conditions: for PGE2 paw tissue level in comparison to the CLX group: P < 0.001; for PGE2 paw tissue level compared to the carrageenan group: rat paw 5 h after carrageenan, CLX 30, 4b 36, 4c 40 mg/kg i.p., P < 0.001, 0.05 and 0.001 respectively
Protocol: as §1, §2, §4

COX-2 [4] = test: Immunohistochemistry of COX-2 expression in paw tissue; type: in vivo; conditions: rat paw 5 h after carrageenan; CLX 30, 4b 36, 4c 40 mg/kg i.p.
Protocol: After overnight fasting, five groups of rats were randomly divided (n = 5). Group I (Control): injected only with the DMSO solution (1.2 ml/kg, i.p, 10% v/v of DMSO in sterile 0.9% saline solution). Group II (Carrageenan): injected with carrageenan [0.1 ml of a freshly prepared solution of carrageenan (1% w/v in sterile 0.9% saline solution) into the sub-plantar region of the right hind paw] and the DSMO solution. […] One hour after treatments, edema caused by carrageenan injection as described above. A digital vernier caliper (Elora, Germany) was used to measure the thickness of the paw right prior to injection of carrageenan and thereafter at 1, 2, 3, 4, and 5 h.
After five hours from carrageenan injection, the rats were euthanized using surgical dislocation with removal of the inflamed paws. Tissues of rat hind-paw’s pad were collected, and 5-mm pieces were homogenised in iced phosphate buffer saline (pH 7.4) on ice. […]
The other set of sections were immunostained to examine expression levels of COX-2 and nuclear factor kappa B (NF-κB p65) using monoclonal antibodies (Thermo Fisher Scientific, MA, United States) and as per the guidelines provided by the manufacturer. Immunostained sections were scored as follows: 0,1, 2 and 3 if there is no, weak, moderate, and strong staining effect, respectively.[49]

COX-2 [5] = conditions: printed in Figure 1, comparator of an unlabelled compound; cited from earlier work
[6] = parameters: method as in PMID 29426771, PMID 11600237, PMID 33266208, PMID 19084415, PMID 35423143; conditions: Figure 1; cited from earlier work

SMILES	NF-κB positive expression score compared to the carrageenan group (NF-κB)	IC50 (COX-2 [1])	(SI) in vitro COX-2 selectivity index (COX-2 [1])	HillSlope (best-fit value), COX-2 inhibition (COX-2 [1])	LogIC50 (best-fit value), COX-2 inhibition (COX-2 [1])	TNF-α lowering effect compared with CLX (TNF-α)	TNF-α paw tissue level compared to the carrageenan group (TNF-α)	melting point	percentage of paw swelling compared to the carrageenan group [2]	semi-quantitative inflammation score (H&E) compared to the carrageenan group [3]	NO paw tissue content compared to CLX (nitric oxide (NO))	IC50 (COX-1)	HillSlope (best-fit value), COX-1 inhibition (COX-1)	LogIC50 (best-fit value), COX-1 inhibition (COX-1)	PGE2 paw tissue level in comparison to the CLX group (PGE2)	PGE2 paw tissue level compared to the carrageenan group (PGE2)	COX-2 positive expression score compared to the carrageenan group (COX-2 [4])	other results
Cc1c(NC(=O)CSc2nnc(-c3ccc(Br)cc3)o2)c(=O)n(-c2ccccc2)n1C [4c, 2-((5–(4-Bromophenyl)-1,3,4-oxadiazol-2-yl)thio)-N-(1,5-dimethyl-3-oxo-2-phenyl-2,3-dihydro-1H-pyrazol-4-yl)acetamide]	decreased	69.8 ± 2.14 nM	1.86	-0.3652	1.844 Log (nM)	higher	decrease	173 to 175 °C	marked lower percentages of paw swelling	decreased	lower	130 ± 2.3 nM	-0.4106	2.112 Log (nM)	higher levels	reduced	decreased	NO paw tissue content compared to 4 b (nitric oxide (NO); P < 0.05): lower; PGE2 paw tissue level compared to the 4b group (PGE2; P < 0.05): lower
Cc1ccc(-c2cc(C(F)(F)F)nn2-c2ccc(S(N)(=O)=O)cc2)cc1 [Celecoxib, reference compound]	decreased	–	–	–	–	–	decrease	–	marked lower percentages of paw swelling	decreased	–	–	–	–	–	reduced	–	–
Cc1cnc(NC(=O)C2=C(O)c3ccccc3S(=O)(=O)N2C)s1 [Meloxicam]	–	–	–	–	–	–	–	–	–	–	–	–	–	–	–	–	–	% inhibition against COX-2 (COX-2 [5]): 44.95%
CC(=O)Nc1nnc(SCC(=O)Nc2c(C)n(C)n(-c3ccccc3)c2=O)s1 [Compound A]	–	–	–	–	–	–	–	–	–	–	–	–	–	–	–	–	–	more active than diclofenac Na as antiinflammatory [6]: 46%
Cc1c(NC(=O)CSc2nnc(-c3ccc(Cl)cc3)o2)c(=O)n(-c2ccccc2)n1C [4b, 2-((5–(4-Chlorophenyl)-1,3,4-oxadiazol-2-yl)thio)-N-(1,5-dimethyl-3-oxo-2-phenyl-2,3-dihydro-1H-pyrazol-4-yl)acetamide]	decreased	53.8 ± 2.05 nM	4.44	-0.2859	1.730 Log (nM)	higher	decrease	190 to 192 °C	marked lower percentages of paw swelling	decreased	higher	238.5 ± 2.08 nM	-0.4124	2.378 Log (nM)	higher levels	reduced	decreased	–

Source: publication PMC9848286, “Design, synthesis, and biological investigation of oxadiazolyl, thiadiazolyl, and pyrimidinyl linked antipyrine derivatives as potential non-acidic anti-inflammatory agents” (Journal of Enzyme Inhibition and Medicinal Chemistry, 2023)
